How the values were obtained:
Experiment in all cases: In vitro antifungal activity, microbroth dilution MIC
Type in all cases: cell-based
Conditions in all cases: RPMI-1640, 35° C., 4 to 48 hours, no growth observed
[1] = system: Aspergillus furnigatus B. 19119
In short: (§1)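 Broth microdilution adapted from NCCLS M27, in RPMI-1640 with 0.165 M MOPS, pH 7.0. Yeast or mould inoculum at 2×10^3 CFU/ml was mixed 1:1 with DMSO-derived compound solutions (200 to 0.10 μg/ml before mixing) and incubated at 35 °C for 4 to 48 h. MIC was the concentration showing no growth.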

[2] = system: Aspergillus niger A. 16404
In short: as §1

[3] = system: Candida albicans A. 10231
In short: as §1

Candida albicans C1-2 = system: Candida albicans C1-2
In short: as §1

[4] = system: Candida albicans IFO. 1385
In short: as §1

Candida krusei K. 11655 = system: Candida krusei K. 11655
In short: as §1

[5] = system: Candida parapsitosis A. 7330
In short: as §1

[6] = system: Candida pseudotropicalis K. 11658
In short: as §1

[7] = system: Candida tropicalis A. 13803
In short: as §1

[8] = system: Cryptococcus neoformans A. 34144
In short: as §1

[9] = system: Cryptococcus neoformans B. 42419
In short: as §1

[10] = system: Cryptococcus neoformans IFM. 40092
In short: as §1

[11] = system: Torulopsis glabrata B. 16205
In short: as §1

[12] = system: Trichophyton mentagrophytes A. 9129
In short: as §1

[13] = system: Trichophyton mentagrophytes B. 32663
In short: as §1

## FC(Oc1ccc(OCC2COC(Cn3ccnc3)(c3ccc(F)cc3F)O2)cc1)=C(c1cccc(C(F)(F)F)c1)C(F)(F)F (mixture of isomers) [Ex. 111]
[1]
  Minimal inhibitory concentration(MIC), A furnigatus B. 19119: >100 µg/mL
[2]
  Minimal inhibitory concentration(MIC), A. niger A. 16404: >100 µg/mL
[3]
  Minimal inhibitory concentration(MIC), C. albicans A. 10231: 100 µg/mL
Candida albicans C1-2
  Minimal inhibitory concentration(MIC), C. albicans C1-2: 50.0 µg/mL
[4]
  Minimal inhibitory concentration(MIC), C. albicans IFO. 1385: 3.13 µg/mL
Candida krusei K. 11655
  Minimal inhibitory concentration(MIC), C. krusei K. 11655: >100 µg/mL
[5]
  Minimal inhibitory concentration(MIC), C. parapsitosis A. 7330: 100 µg/mL
[6]
  Minimal inhibitory concentration(MIC), C. pseudotropicalis K. 11658: 100 µg/mL
[7]
  Minimal inhibitory concentration(MIC), C. tropicalis A. 13803: >100 µg/mL
[8]
  Minimal inhibitory concentration(MIC), Cry. neoformans A. 34144: 1.56 µg/mL
[9]
  Minimal inhibitory concentration(MIC), Cry. neoformans B. 42419: 3.13 µg/mL
[10]
  Minimal inhibitory concentration(MIC), Cry. neoformans IFM. 40092: 0.39 µg/mL
[11]
  Minimal inhibitory concentration(MIC), T. glabrata B. 16205: 100 µg/mL
[12]
  Minimal inhibitory concentration(MIC), T. mentagrophytes A. 9129: 6.25 µg/mL
[13]
  Minimal inhibitory concentration(MIC), T. mentagrophytes B. 32663: 3.13 µg/mL

## FC(Oc1ccc(OCC2COC(Cn3ccnc3)(c3ccc(F)cc3F)O2)cc1)=C(c1ccc2c(c1)OCO2)C(F)(F)F (mixture of isomers) [Ex. 112]
[1]
  Minimal inhibitory concentration(MIC), A furnigatus B. 19119: >100 µg/mL
[2]
  Minimal inhibitory concentration(MIC), A. niger A. 16404: >100 µg/mL
[3]
  Minimal inhibitory concentration(MIC), C. albicans A. 10231: 25.0 µg/mL
Candida albicans C1-2
  Minimal inhibitory concentration(MIC), C. albicans C1-2: 12.5 µg/mL
[4]
  Minimal inhibitory concentration(MIC), C. albicans IFO. 1385: 1.56 µg/mL
Candida krusei K. 11655
  Minimal inhibitory concentration(MIC), C. krusei K. 11655: >100 µg/mL
[5]
  Minimal inhibitory concentration(MIC), C. parapsitosis A. 7330: >100 µg/mL
[6]
  Minimal inhibitory concentration(MIC), C. pseudotropicalis K. 11658: 25.0 µg/mL
[7]
  Minimal inhibitory concentration(MIC), C. tropicalis A. 13803: 100 µg/mL
[8]
  Minimal inhibitory concentration(MIC), Cry. neoformans A. 34144: 1.56 µg/mL
[9]
  Minimal inhibitory concentration(MIC), Cry. neoformans B. 42419: 1.56 µg/mL
[10]
  Minimal inhibitory concentration(MIC), Cry. neoformans IFM. 40092: 0.39 µg/mL
[11]
  Minimal inhibitory concentration(MIC), T. glabrata B. 16205: 50.0 µg/mL
[12]
  Minimal inhibitory concentration(MIC), T. mentagrophytes A. 9129: 6.25 µg/mL
[13]
  Minimal inhibitory concentration(MIC), T. mentagrophytes B. 32663: 3.13 µg/mL

## FC(Oc1ccc(OCC2COC(Cn3ccnc3)(c3ccc(F)cc3F)O2)cc1)=C(c1ccc(Oc2ccccc2)cc1)C(F)(F)F (mixture of isomers) [Ex. 113]
[1]
  Minimal inhibitory concentration(MIC), A furnigatus B. 19119: >100 µg/mL
[2]
  Minimal inhibitory concentration(MIC), A. niger A. 16404: >100 µg/mL
[3]
  Minimal inhibitory concentration(MIC), C. albicans A. 10231: >100 µg/mL
Candida albicans C1-2
  Minimal inhibitory concentration(MIC), C. albicans C1-2: >100 µg/mL
[4]
  Minimal inhibitory concentration(MIC), C. albicans IFO. 1385: 3.13 µg/mL
Candida krusei K. 11655
  Minimal inhibitory concentration(MIC), C. krusei K. 11655: >100 µg/mL
[5]
  Minimal inhibitory concentration(MIC), C. parapsitosis A. 7330: >100 µg/mL
[6]
  Minimal inhibitory concentration(MIC), C. pseudotropicalis K. 11658: 100 µg/mL
[7]
  Minimal inhibitory concentration(MIC), C. tropicalis A. 13803: >100 µg/mL
[8]
  Minimal inhibitory concentration(MIC), Cry. neoformans A. 34144: 1.56 µg/mL
[9]
  Minimal inhibitory concentration(MIC), Cry. neoformans B. 42419: 3.13 µg/mL
[10]
  Minimal inhibitory concentration(MIC), Cry. neoformans IFM. 40092: 0.39 µg/mL
[11]
  Minimal inhibitory concentration(MIC), T. glabrata B. 16205: >100 µg/mL
[12]
  Minimal inhibitory concentration(MIC), T. mentagrophytes A. 9129: 25.0 µg/mL
[13]
  Minimal inhibitory concentration(MIC), T. mentagrophytes B. 32663: 12.5 µg/mL

## FC(Oc1ccc(OCC2COC(Cn3ccnc3)(c3ccc(F)cc3F)O2)cc1)=C(c1cccc(Cl)c1)C(F)(F)F (mixture of isomers) [Ex. 114]
[1]
  Minimal inhibitory concentration(MIC), A furnigatus B. 19119: >100 µg/mL
[2]
  Minimal inhibitory concentration(MIC), A. niger A. 16404: >100 µg/mL
[3]
  Minimal inhibitory concentration(MIC), C. albicans A. 10231: 50.0 µg/mL
Candida albicans C1-2
  Minimal inhibitory concentration(MIC), C. albicans C1-2: 25.0 µg/mL
[4]
  Minimal inhibitory concentration(MIC), C. albicans IFO. 1385: 1.56 µg/mL
Candida krusei K. 11655
  Minimal inhibitory concentration(MIC), C. krusei K. 11655: >100 µg/mL
[5]
  Minimal inhibitory concentration(MIC), C. parapsitosis A. 7330: >100 µg/mL
[6]
  Minimal inhibitory concentration(MIC), C. pseudotropicalis K. 11658: >100 µg/mL
[7]
  Minimal inhibitory concentration(MIC), C. tropicalis A. 13803: >100 µg/mL
[8]
  Minimal inhibitory concentration(MIC), Cry. neoformans A. 34144: 1.56 µg/mL
[9]
  Minimal inhibitory concentration(MIC), Cry. neoformans B. 42419: 1.56 µg/mL
[10]
  Minimal inhibitory concentration(MIC), Cry. neoformans IFM. 40092: 0.39 µg/mL
[11]
  Minimal inhibitory concentration(MIC), T. glabrata B. 16205: 50.0 µg/mL
[12]
  Minimal inhibitory concentration(MIC), T. mentagrophytes A. 9129: 6.25 µg/mL
[13]
  Minimal inhibitory concentration(MIC), T. mentagrophytes B. 32663: 3.13 µg/mL

## FC(Oc1ccc(OCC2COC(Cn3ccnc3)(c3ccc(F)cc3F)O2)cc1)=C(c1cccc(F)c1)C(F)(F)F (mixture of isomers) [Ex. 115]
[1]
  Minimal inhibitory concentration(MIC), A furnigatus B. 19119: >100 µg/mL
[2]
  Minimal inhibitory concentration(MIC), A. niger A. 16404: >100 µg/mL
[3]
  Minimal inhibitory concentration(MIC), C. albicans A. 10231: 25.0 µg/mL
Candida albicans C1-2
  Minimal inhibitory concentration(MIC), C. albicans C1-2: 25.0 µg/mL
[4]
  Minimal inhibitory concentration(MIC), C. albicans IFO. 1385: 1.56 µg/mL
Candida krusei K. 11655
  Minimal inhibitory concentration(MIC), C. krusei K. 11655: >100 µg/mL
[5]
  Minimal inhibitory concentration(MIC), C. parapsitosis A. 7330: >100 µg/mL
[6]
  Minimal inhibitory concentration(MIC), C. pseudotropicalis K. 11658: >100 µg/mL
[7]
  Minimal inhibitory concentration(MIC), C. tropicalis A. 13803: 100 µg/mL
[8]
  Minimal inhibitory concentration(MIC), Cry. neoformans A. 34144: 1.56 µg/mL
[9]
  Minimal inhibitory concentration(MIC), Cry. neoformans B. 42419: 3.13 µg/mL
[10]
  Minimal inhibitory concentration(MIC), Cry. neoformans IFM. 40092: 0.39 µg/mL
[11]
  Minimal inhibitory concentration(MIC), T. glabrata B. 16205: 50.0 µg/mL
[12]
  Minimal inhibitory concentration(MIC), T. mentagrophytes A. 9129: 6.25 µg/mL
[13]
  Minimal inhibitory concentration(MIC), T. mentagrophytes B. 32663: 3.13 µg/mL

## FC(Oc1ccc(OCC2COC(Cn3ccnc3)(c3ccc(F)cc3F)O2)cc1)=C(c1cc(Cl)cc(Cl)c1)C(F)(F)F (mixture of isomers) [Ex. 116]
[1]
  Minimal inhibitory concentration(MIC), A furnigatus B. 19119: >100 µg/mL
[2]
  Minimal inhibitory concentration(MIC), A. niger A. 16404: >100 µg/mL
[3]
  Minimal inhibitory concentration(MIC), C. albicans A. 10231: 100 µg/mL
Candida albicans C1-2
  Minimal inhibitory concentration(MIC), C. albicans C1-2: 100 µg/mL
[4]
  Minimal inhibitory concentration(MIC), C. albicans IFO. 1385: 3.13 µg/mL
Candida krusei K. 11655
  Minimal inhibitory concentration(MIC), C. krusei K. 11655: 100 µg/mL
[5]
  Minimal inhibitory concentration(MIC), C. parapsitosis A. 7330: 100 µg/mL
[6]
  Minimal inhibitory concentration(MIC), C. pseudotropicalis K. 11658: 25.0 µg/mL
[7]
  Minimal inhibitory concentration(MIC), C. tropicalis A. 13803: >100 µg/mL
[8]
  Minimal inhibitory concentration(MIC), Cry. neoformans A. 34144: 1.56 µg/mL
[9]
  Minimal inhibitory concentration(MIC), Cry. neoformans B. 42419: 1.56 µg/mL
[10]
  Minimal inhibitory concentration(MIC), Cry. neoformans IFM. 40092: 0.20 µg/mL
[11]
  Minimal inhibitory concentration(MIC), T. glabrata B. 16205: 50.0 µg/mL
[12]
  Minimal inhibitory concentration(MIC), T. mentagrophytes A. 9129: 6.25 µg/mL
[13]
  Minimal inhibitory concentration(MIC), T. mentagrophytes B. 32663: 3.13 µg/mL

## COc1ccc(C=C(F)Oc2ccc(OCC3COC(Cn4cncn4)(c4ccc(Cl)cc4Cl)O3)cc2)cc1 (mixture of isomers) [Ex. 118]
[1]
  Minimal inhibitory concentration(MIC), A furnigatus B. 19119: >100 µg/mL
[2]
  Minimal inhibitory concentration(MIC), A. niger A. 16404: >100 µg/mL
[3]
  Minimal inhibitory concentration(MIC), C. albicans A. 10231: 25.0 µg/mL
Candida albicans C1-2
  Minimal inhibitory concentration(MIC), C. albicans C1-2: 12.5 µg/mL
[4]
  Minimal inhibitory concentration(MIC), C. albicans IFO. 1385: 1.56 µg/mL
Candida krusei K. 11655
  Minimal inhibitory concentration(MIC), C. krusei K. 11655: >100 µg/mL
[5]
  Minimal inhibitory concentration(MIC), C. parapsitosis A. 7330: >100 µg/mL
[6]
  Minimal inhibitory concentration(MIC), C. pseudotropicalis K. 11658: 25.0 µg/mL
[7]
  Minimal inhibitory concentration(MIC), C. tropicalis A. 13803: 100 µg/mL
[8]
  Minimal inhibitory concentration(MIC), Cry. neoformans A. 34144: 1.56 µg/mL
[9]
  Minimal inhibitory concentration(MIC), Cry. neoformans B. 42419: 1.56 µg/mL
[10]
  Minimal inhibitory concentration(MIC), Cry. neoformans IFM. 40092: 0.39 µg/mL
[11]
  Minimal inhibitory concentration(MIC), T. glabrata B. 16205: 50.0 µg/mL
[12]
  Minimal inhibitory concentration(MIC), T. mentagrophytes A. 9129: 6.25 µg/mL
[13]
  Minimal inhibitory concentration(MIC), T. mentagrophytes B. 32663: 3.13 µg/mL
